Results: US4636520A, “Antifungal composition employing pyrrolnitrin in combination with an imidazole compound” (Fujisawa Pharmaceutical Co., Ltd., priority 1984, dated 1987)
In brackets after ≈: the same amount, converted by molar mass. Where two headings read alike, the source gives them in different places.

Assays:
Assay type in all cases: cell-based
[1] = tested on: Candida albicans Yu-1200; test: Antimicrobial test 1 (agar plate MIC), organism a
Experimental: (§1) Pyrrolnitrin (PY) alone, clotrimazole (CL) alone, a 2:1 mixture of PY and CL, a 1:1 mixture of PY and CL and 1:2 mixture of PY and CL were tested for antimicrobial activity in various strains of microorganisms.
(§2) a: Candida albicans Yu-1200
(§3) Composition A: PY (10 mg) was dissolved in 1 ml of ethanol, and the solution is mixed with 9 ml of sterilized water to give a milk-white suspension.
(§4) Composition B: CL (10 mg) was dissolved in 1 ml of N,N-dimethylformamide, and the solution was mixed with 9 ml of sterilized water to give a milk-white suspension.
(§5) Composition C: The above Compositions A and B were mixed together in a volume ratio of 2:1 to give a suspension. […]
(§6) Plates with varied active ingredient concentrations were prepared by admixing each of Compositions A-E prepared in the above manner with Sabouraud agar medium (for test organisms a-f) or Mueller-Hinton medium (for test organism g), followed by appropriate dilution with the medium. These plates were inoculated respectively with each of the test organisms a-g and incubated under the conditions given below, and the minimum inhibitory concentration (MIC; μg/ml) at which the growth of each test organism is inhibited was determined. […]
(§7) The FIC indexes given in the parentheses of Tables 1 and 2 were calculated by using the following formulas. […]

[2] = tested on: Candida albicans FP578; test: Antimicrobial test 1 (agar plate MIC), organism b
Experimental: as §1
b: Candida albicans FP578
as §3, §4, §5, §6, §7

[3] = tested on: Candida albicans FP579; test: Antimicrobial test 1 (agar plate MIC), organism c
Experimental: as §1
c: Candida albicans FP579
as §3, §4, §5, §6, §7

[4] = tested on: Candida albicans FP580; test: Antimicrobial test 1 (agar plate MIC), organism d
Experimental: as §1
(§8) d: Candida albicans FP580
as §3, §4, §5, §6, §7

[5] = tested on: Candida albicans FP581; test: Antimicrobial test 1 (agar plate MIC), organism e
Experimental: as §1
e: Candida albicans FP581
as §3, §4, §5, §6, §7

[6] = tested on: Aspergillus oryzae IFO 5239; test: Antimicrobial test 1 (agar plate MIC), organism f; conditions: IFO5239, 168 h
Experimental: as §1
f: Aspergillus oryzae IFO 5239
as §3, §4, §5, §6, §7

[7] = tested on: Staphylococcus epidermidis 91; test: Antimicrobial test 1 (agar plate MIC), organism g
Experimental: as §1
g: Staphylococcus epidermidis 91
as §3, §4, §5, §6, §7

[8] = tested on: Candida albicans Yu-1200; test: Antimicrobial test 2 (agar plate MIC), organism a
Experimental: (§9) Pyrrolnitrin (PY) alone, clotrimazole (CL) alone, miconazole alone, econazole alone, oxyconazole alone and 1:1 mixtures of PY and CL, PY and miconazole, PY and econazole and PY and oxyconazole were test for antimicrobial activity in various strains of microorganisms.
as §2
(§10) Compositions A was prepared as stated above.
(§11) Composition F, G and H: A milk-white suspension containing 10 mg of miconazole (Composition F), a transparent solution containing 10 mg of econazole (Composition G) and a milk-white suspension containing 10 mg of oxyconazole (Composition H) were respectively prepared in a similar way to that of Composition B.
(§12) Composition I: The above-mentioned Compositions A and F were mixed together in a volume ratio of 1:1 to give a suspension.
(§13) Composition J: The above-mentioned Compositions A and G were mixed together in a volume ratio of 1:1 to give a suspension.
(§14) Composition K: The above-mentioned Compositions A and H were mixed together in a volume ratio of 1:1 to give a suspension.
(§15) Plates with varied active ingredient concentrations were prepared by admixing each of Compositions A and F to K prepared in the above manner with Sabouraud agar medium, followed by appropriate dilution with the medium. These plates were inoculated respectively with each of the test organisms a and d and incubated at 30° C. for 48 hours. The minimum inhibitory concentration (MIC; μg/ml) at which the growth of each test organism is inhibited was determined.
(§16) The FIC indexes given in the parentheses of Tables 1 and 2 were calculated by using the following formulas. [formula]

[9] = tested on: Candida albicans FP580; test: Antimicrobial test 2 (agar plate MIC), organism d
Experimental: as §9, §8, §10, §11, §12, §13, §14, §15, §16

`O=[N+]([O-])c1c(Cl)cccc1-c1c[nH]cc1Cl` [Composition A, 3-(2-nitro-3-chlorophenyl)-4-chloropyrrole] showed an MIC ([1]; YU1200, Candida albicans Yu-1200, Sabouraud agar, 37° C., 24 hours, read-out: MIC) of 100 µg/mL (≈ 389 µM), an MIC ([2]; Candida albicans FP578, Sabouraud agar, 37° C., 24 hours, read-out: MIC) of 3.13 µg/mL (≈ 12.2 µM) and an MIC ([3]; Candida albicans FP579, Sabouraud agar, 37° C., 24 hours, read-out: MIC) of 25 µg/mL (≈ 97.2 µM). It also gave an MIC ([4]; Candida albicans FP580, Sabouraud agar, 37° C., 24 hours, read-out: MIC) of 1.56 µg/mL (≈ 6.07 µM), an MIC ([5]; Candida albicans FP581, Sabouraud agar, 37° C., 24 hours, read-out: MIC) of over 100 µg/mL and an MIC ([6]; Aspergillus oryzae IFO 5239, Sabouraud agar, 30° C., 1 week, read-out: MIC) of over 100 µg/mL. It also gave an MIC ([7]; Staphylococcus epidermidis 91, Mueller-Hinton medium, 37° C., 20 hours, read-out: MIC) of 100 µg/mL (≈ 389 µM), an MIC ([8]; YU1200, Candida albicans Yu-1200, Sabouraud agar, 30° C., 48 hours, read-out: MIC) of 100 µg/mL (≈ 389 µM) and an MIC ([9]; Candida albicans FP580, Sabouraud agar, 30° C., 48 hours, read-out: MIC) of 0.78 µg/mL (≈ 3.03 µM).
Work on `Clc1ccccc1C(c1ccccc1)(c1ccccc1)n1ccnc1` [Composition B, 1-[(2-chlorophenyl)diphenylmethyl]-1H-imidazole] yielded an MIC ([1]; Candida albicans, YU1200, 24 h) of 6.25 µg/mL (≈ 18.1 µM), an MIC ([2]; Candida albicans, FP578, 24 h) of 6.25 µg/mL (≈ 18.1 µM) and an MIC ([3]; Candida albicans, FP579, 24 h) of 6.25 µg/mL (≈ 18.1 µM). The MIC ([4]; Candida albicans, FP580, 24 h) was 6.25 µg/mL (≈ 18.1 µM), the MIC ([5]; Candida albicans, FP581, 24 h) was 25 µg/mL (≈ 72.5 µM) and the MIC ([6]; Aspergillus oryzae) was 12.5 µg/mL (≈ 36.2 µM). It also gave an MIC ([7]; Staphylococcus epidermidis, 91, 20 h) of 25 µg/mL (≈ 72.5 µM).
Compound `Clc1ccc(COC(Cn2ccnc2)c2ccc(Cl)cc2Cl)c(Cl)c1` (stereo not shown) [Composition F, 1-[2-(2,4-dichlorophenyl)-2-[(2,4-dichlorophenyl)methoxy]ethyl]-1H-imidazole] has an MIC ([8]; Candida albicans, YU1200, 48 h) of 6.25 µg/mL (≈ 15 µM) and an MIC ([9]; Candida albicans, FP580, 48 h) of 12.5 µg/mL (≈ 30 µM).
`Clc1ccc(COC(Cn2ccnc2)c2ccc(Cl)cc2Cl)cc1` (stereo not shown) [Composition G, 1-[2-[(4-chlorophenyl)methoxy]-2-(2,4-dichlorophenyl)ethyl]-1H-imidazole] gave an MIC ([8]; Candida albicans, YU1200, 48 h) of 6.25 µg/mL (≈ 16.4 µM) and an MIC ([9]; Candida albicans, FP580, 48 h) of 6.25 µg/mL (≈ 16.4 µM).
In the case of `Clc1ccc(C(Cn2ccnc2)=NOCc2ccc(Cl)cc2Cl)cc1` [Composition H], the MIC ([8]; Candida albicans Yu-1200, Sabouraud agar, 30° C., 48 hours) is reported as 25 µg/mL (≈ 63.3 µM) and the MIC ([9]; Candida albicans FP580, Sabouraud agar, 30° C., 48 hours) is reported as 25 µg/mL (≈ 63.3 µM).
